According to patent US20260242419A1, “A CYCLIC PEPTIDE FOR TRAPPING INTERLEUKIN-1 BETA” (Merck Sharp & Dohme LLC, priority 2023, published 2026):
Non-standard residues stand in square brackets, D forms with d. Residues, ends and D or L forms follow the SMILES beside them. dPro(4R-(4-pyridylmethyl)) = O=C(O)[C@H]1C[C@@H](Cc2ccncc2)CN1; Trp(βS-Me,4-F) = C[C@@H](c1c[nH]c2cccc(F)c12)[C@H](N)C(=O)O; Ala(1-bicyclo(1.1.1)pentyl) = N[C@@H](CC12CC(C1)C2)C(=O)O; dPro(3S-(4-F-Bn)) = O=C(O)[C@@H]1NCC[C@@H]1Cc1ccc(F)cc1; Phe(2-Cl,4-COOH) = N[C@@H](Cc1ccc(C(=O)O)cc1Cl)C(=O)O; Ala(pyrimidin-5-yl) = N[C@@H](Cc1cncnc1)C(=O)O; Phe(4-CONH2) = NC(=O)c1ccc(C[C@H](N)C(=O)O)cc1; Phe(4-COOH) = N[C@@H](Cc1ccc(C(=O)O)cc1)C(=O)O; Pro(cis-4-F) = O=C(O)[C@@H]1C[C@H](F)CN1; Ala(4-THP) = N[C@@H](CC1CCOCC1)C(=O)O; AEF = NCCOc1ccc(C[C@H](N)C(=O)O)cc1; d(αMeD) = C[C@@](N)(CC(=O)O)C(=O)O; 4Pal = N[C@@H](Cc1ccncc1)C(=O)O; d(αMeS) = C[C@@](N)(CO)C(=O)O; Dab = NCC[C@H](N)C(=O)O; Aib = CC(C)(N)C(=O)O

What follows are molecules tested against T1, IL-1β (Homo sapiens, UniProt P01584) (assay: IL-6 assay in MRC5 cells: inhibition of IL-1β induced IL-6 secretion (AlphaLISA)). Conditions: inhibition of IL-1β induced IL-6 secretion in MRC5 cells; read-out: MRC5 IC50.
T1 construct: purchased BioLegend 579404
T1 sequence (P01584 117-269): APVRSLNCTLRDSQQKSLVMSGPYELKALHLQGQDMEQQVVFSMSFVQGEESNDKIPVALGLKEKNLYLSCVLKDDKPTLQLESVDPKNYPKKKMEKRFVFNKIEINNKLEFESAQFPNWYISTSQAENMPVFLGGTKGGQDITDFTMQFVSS
Format: cell-based
Outline: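 Compound was pre-incubated 1 h at ambient temperature with recombinant human IL-1β at 2λ EC80 before adding human lung fibroblast MRC5 cells (3000/well) in EMEM with 0.025% BSA. After overnight culture at 37 °C, 5% CO2, secreted IL-6 in conditioned medium was measured by AlphaLISA; IC50 from 4-parameter logistic fits.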

Point of comparison: `CC(=O)NCCOc1ccc(C[C@@H]2NC(=O)[C@H]3C[C@@H](Cc4ccncc4)CN3C(=O)CNC(=O)[C@H](CCN)NC(=O)[C@H](CCC(N)=O)NC(=O)[C@H](Cc3cncnc3)NC(=O)C(C)(C)NC(=O)[C@H](Cc3c[nH]c4ccccc34)NC(=O)[C@H](CO)NC(=O)C(C)(C)NC(=O)[C@H]([C@@H](C)c3c[nH]c4cccc(F)c34)NC(=O)[C@@H]3C[C@H](F)CN3C(=O)CNC(=O)[C@H](Cc3ccc(C(=O)O)cc3Cl)NC(=O)[C@H](Cc3ccncc3)NC2=O)cc1` [Example 367] (cyclo([AEF](Ac)[4Pal][Phe(2-Cl,4-COOH)]G[Pro(cis-4-F)][Trp(βS-Me,4-F)][Aib]SW[Aib][Ala(pyrimidin-5-yl)]Q[Dab]G[dPro(4R-(4-pyridylmethyl))])), IC50 17 pM. Against it:
- CC(=O)NCCOc1ccc(C[C@@H]2NC(=O)[C@H]3C[C@@H](Cc4ccncc4)CN3C(=O)CNC(=O)[C@H](CCN)NC(=O)[C@H](CCC(N)=O)NC(=O)[C@H](Cc3cncnc3)NC(=O)C(C)(C)NC(=O)[C@H](Cc3c[nH]c4ccccc34)NC(=O)[C@H](CO)NC(=O)C(C)(C)NC(=O)[C@H]([C@@H](C)c3c[nH]c4cccc(F)c34)NC(=O)[C@@H]3C[C@H](F)CN3C(=O)CNC(=O)[C@H](Cc3ccc(C(=O)O)cc3)NC(=O)[C@H](Cc3ccncc3)NC2=O)cc1 [Example 368] (cyclo([AEF](Ac)[4Pal][Phe(4-COOH)]G[Pro(cis-4-F)][Trp(βS-Me,4-F)][Aib]SW[Aib][Ala(pyrimidin-5-yl)]Q[Dab]G[dPro(4R-(4-pyridylmethyl))])) — within 1.5-fold, 22 pM
- CC(=O)NCCOc1ccc(C[C@@H]2NC(=O)[C@H]3[C@@H](Cc4ccc(F)cc4)CCN3C(=O)CNC(=O)[C@H](CCN)NC(=O)[C@H](CCC(N)=O)NC(=O)[C@H](Cc3cncnc3)NC(=O)[C@@](C)(CC(=O)O)NC(=O)[C@H](Cc3c[nH]c4ccccc34)NC(=O)[C@H](CO)NC(=O)C(C)(C)NC(=O)[C@H]([C@@H](C)c3c[nH]c4cccc(F)c34)NC(=O)[C@@H]3C[C@H](F)CN3C(=O)CNC(=O)[C@H](Cc3ccc(C(=O)O)cc3)NC(=O)[C@H](Cc3ccncc3)NC2=O)cc1 [Example 369] (cyclo([AEF](Ac)[4Pal][Phe(4-COOH)]G[Pro(cis-4-F)][Trp(βS-Me,4-F)][Aib]SW[d(αMeD)][Ala(pyrimidin-5-yl)]Q[Dab]G[dPro(3S-(4-F-Bn))])) — within 1.5-fold, 21 pM
- CC(=O)NCCOc1ccc(C[C@@H]2NC(=O)[C@H]3[C@@H](Cc4ccc(F)cc4)CCN3C(=O)CNC(=O)[C@H](CCN)NC(=O)[C@H](CCC(N)=O)NC(=O)[C@H](CC3CCOCC3)NC(=O)[C@@](C)(CC(=O)O)NC(=O)[C@H](Cc3c[nH]c4ccccc34)NC(=O)[C@H](CO)NC(=O)C(C)(C)NC(=O)[C@H]([C@@H](C)c3c[nH]c4cccc(F)c34)NC(=O)[C@@H]3C[C@H](F)CN3C(=O)CNC(=O)[C@H](Cc3ccc(C(=O)O)cc3)NC(=O)[C@H](CC34CC(C3)C4)NC2=O)cc1 [Example 370] (cyclo([AEF](Ac)[Ala(1-bicyclo(1.1.1)pentyl)][Phe(4-COOH)]G[Pro(cis-4-F)][Trp(βS-Me,4-F)][Aib]SW[d(αMeD)][Ala(4-THP)]Q[Dab]G[dPro(3S-(4-F-Bn))])) — within 1.5-fold, 15 pM
- CC(=O)NCCOc1ccc(C[C@@H]2NC(=O)[C@H]3[C@@H](Cc4ccc(F)cc4)CCN3C(=O)CNC(=O)[C@H](CCN)NC(=O)[C@H](CCC(N)=O)NC(=O)[C@H](CC3CCOCC3)NC(=O)[C@@](C)(CO)NC(=O)[C@H](Cc3c[nH]c4ccccc34)NC(=O)[C@H](CO)NC(=O)C(C)(C)NC(=O)[C@H]([C@@H](C)c3c[nH]c4cccc(F)c34)NC(=O)[C@@H]3C[C@H](F)CN3C(=O)CNC(=O)[C@H](Cc3ccc(C(=O)O)cc3)NC(=O)[C@H](CC34CC(C3)C4)NC2=O)cc1 [Example 371] (cyclo([AEF](Ac)[Ala(1-bicyclo(1.1.1)pentyl)][Phe(4-COOH)]G[Pro(cis-4-F)][Trp(βS-Me,4-F)][Aib]SW[d(αMeS)][Ala(4-THP)]Q[Dab]G[dPro(3S-(4-F-Bn))])) — within 1.5-fold, 14 pM
- CC(=O)NCCOc1ccc(C[C@@H]2NC(=O)[C@H]3[C@@H](Cc4ccc(F)cc4)CCN3C(=O)CNC(=O)[C@H](CCN)NC(=O)[C@H](CCC(N)=O)NC(=O)[C@H](CC3CCOCC3)NC(=O)[C@@](C)(CC(=O)O)NC(=O)[C@H](Cc3c[nH]c4ccccc34)NC(=O)[C@H](CO)NC(=O)C(C)(C)NC(=O)[C@H]([C@@H](C)c3c[nH]c4cccc(F)c34)NC(=O)[C@@H]3C[C@H](F)CN3C(=O)CNC(=O)[C@H](Cc3ccc(C(=O)O)cc3)NC(=O)[C@H](Cc3ccncc3)NC2=O)cc1 [Example 372] (cyclo([AEF](Ac)[4Pal][Phe(4-COOH)]G[Pro(cis-4-F)][Trp(βS-Me,4-F)][Aib]SW[d(αMeD)][Ala(4-THP)]Q[Dab]G[dPro(3S-(4-F-Bn))])) — 1.9-fold lower, 9 pM
- CC(=O)NCCOc1ccc(C[C@@H]2NC(=O)[C@H]3[C@@H](Cc4ccc(F)cc4)CCN3C(=O)CNC(=O)[C@H](CCN)NC(=O)[C@H](CCC(N)=O)NC(=O)[C@H](CC3CCOCC3)NC(=O)[C@@](C)(CC(=O)O)NC(=O)[C@H](Cc3c[nH]c4ccccc34)NC(=O)[C@H](CO)NC(=O)C(C)(C)NC(=O)[C@H]([C@@H](C)c3c[nH]c4cccc(F)c34)NC(=O)[C@@H]3C[C@H](F)CN3C(=O)CNC(=O)[C@H](Cc3ccc(C(N)=O)cc3)NC(=O)[C@H](CC34CC(C3)C4)NC2=O)cc1 [Example 373] (cyclo([AEF](Ac)[Ala(1-bicyclo(1.1.1)pentyl)][Phe(4-CONH2)]G[Pro(cis-4-F)][Trp(βS-Me,4-F)][Aib]SW[d(αMeD)][Ala(4-THP)]Q[Dab]G[dPro(3S-(4-F-Bn))])) — within 1.5-fold, 12 pM
- CC(=O)NCCOc1ccc(C[C@@H]2NC(=O)[C@H]3C[C@@H](Cc4ccncc4)CN3C(=O)CNC(=O)[C@H](CCN)NC(=O)[C@H](CCC(N)=O)NC(=O)[C@H](CC3CCOCC3)NC(=O)[C@@](C)(CC(=O)O)NC(=O)[C@H](Cc3c[nH]c4ccccc34)NC(=O)[C@H](CO)NC(=O)C(C)(C)NC(=O)[C@H]([C@@H](C)c3c[nH]c4cccc(F)c34)NC(=O)[C@@H]3C[C@H](F)CN3C(=O)CNC(=O)[C@H](Cc3ccc(C(=O)O)cc3)NC(=O)[C@H](CC34CC(C3)C4)NC2=O)cc1 [Example 374] (cyclo([AEF](Ac)[Ala(1-bicyclo(1.1.1)pentyl)][Phe(4-COOH)]G[Pro(cis-4-F)][Trp(βS-Me,4-F)][Aib]SW[d(αMeD)][Ala(4-THP)]Q[Dab]G[dPro(4R-(4-pyridylmethyl))])) — the same, 17 pM
- CC(=O)NCCOc1ccc(C[C@@H]2NC(=O)[C@H]3C[C@@H](Cc4ccncc4)CN3C(=O)CNC(=O)[C@H](CCN)NC(=O)[C@H](CCC(N)=O)NC(=O)[C@H](CC3CCOCC3)NC(=O)[C@@](C)(CO)NC(=O)[C@H](Cc3c[nH]c4ccccc34)NC(=O)[C@H](CO)NC(=O)C(C)(C)NC(=O)[C@H]([C@@H](C)c3c[nH]c4cccc(F)c34)NC(=O)[C@@H]3C[C@H](F)CN3C(=O)CNC(=O)[C@H](Cc3ccc(C(=O)O)cc3)NC(=O)[C@H](CC34CC(C3)C4)NC2=O)cc1 [Example 375] (cyclo([AEF](Ac)[Ala(1-bicyclo(1.1.1)pentyl)][Phe(4-COOH)]G[Pro(cis-4-F)][Trp(βS-Me,4-F)][Aib]SW[d(αMeS)][Ala(4-THP)]Q[Dab]G[dPro(4R-(4-pyridylmethyl))])) — within 1.5-fold, 25 pM
